Read-outs that look alike come from different tables or passages of the source.
Legend:
[1] = test system: haploid and diploid yeast populations (ySK116, ySK743, ySK116x743); format: cell-based, S. cerevisiae; conditions: 30° C., OD 0.25-0.3, over the 20 h following drug addition
Method: Single colonies of fluorescently labelled haploid MATα (ySK116), fluorescently labelled haploid MATα (ySK743), and fluorescently labelled diploid control (ySK116x743) cells were grown overnight in YPD. These overnights were used to seed three eVOLVER vials at OD 0.05 (containing YPAD+50 ug/mL carbenicillin+25 ug/mL chloramphenicol). Cells were maintained at 30° C. in a density window of OD 0.25-0.3 for several generations in order to measure a baseline growth rate. At 16 h post-inoculation, cells from each haploid population were transferred by the vial-to-vial transfer device into the same fresh vial containing YPAD in order to create a new pre-drug to diploid population.
Next, cyclohexamide (CHX) was added to the haploid MATα vial, ketoconazole (KETO) was added to the MATα vial, and both drugs were added to the diploid control. Using the media selection portion of the vial-to-vial transfer device, 1 mL aliquots of media at 20× drug concentration were used to achieve a step-function transition to the final 1× drug concentration in each vial (0.2 ug/mL CHX for MATα, 6 ug/mL KETO for MATα, 0.2 ug/mL CHX+6 ug/mL KETO for the diploid control).

[2] = test system: diploid pool samples yBW003, yBW008, yBW009; test: Growth rate assay to evaluate antifungal resistance of diploid pools in eVOLVER; format: cell-based, S. cerevisiae; conditions: 6 ug/mL KETO only, seeded at OD 0.1, 30° C., 24 h without dilution
Method: As an alternative metric to evaluate performance of the diploids formed during the experiment, a growth rate assay was performed in media containing each drug in isolation or combination. Three diploid pool samples were assayed: yBW003 from to, yBWOO8 from t1, and yBW009 from t2. 100 uL of each frozen stock created from post-selection cultures was thawed, added to 2 mL YPAD and then grown in culture tubes in a shaking incubator for 16 h at 30° C. These cultures were used to seed duplicate eVOLVER vials containing media with one of four drug conditions (no drug, 0.2 ug/mL CHX only, 6 ug/mL KETO only, both 0.2 ug/mL CHX+6 ug/mL KETO) at an initial density of OD 0.1. Each vial received an estimated 3.2×10^7 cells from the non-clonal population that comprised each sample pool. Cultures were maintained in eVOLVER at 30° C. for 24 h without dilution, while tracking density continuously. Growth rate was calculated for each culture over the density range OD 0.2-0.8 (FIG. 43).

Row | Compound | Growth rate relative to its original (pre-drug) value ([1]; 0.2 ug/mL CHX, haploid vial (founder ySK116)) | Growth rate relative to its original (pre-drug) value ([1]; 6 ug/mL KETO, haploid MATα vial (founder ySK743)) | Effect on growth rate of diploid pools [2]
1 | C[C@@H]1C[C@@H]([C@H](O)CC2CC(=O)NC(=O)C2)C(=O)[C@@H](C)C1 [CHX, cyclohexamide] | roughly 10% | – | –
2 | CC(=O)N1CCN(c2ccc(OCC3COC(Cn4ccnc4)(c4ccc(Cl)cc4Cl)O3)cc2)CC1 (stereo not drawn) [KETO, ketoconazole] | – | roughly 10% | not observed to significantly affect the growth rate

Reference: patent US20210214713A9, “METHODS FOR EXPERIMENTAL EVOLUTION OF NATURAL AND SYNTHETIC MICROBES” (priority 2017, published 2021)
